The values that follow come from ChEMBL document CHEMBL1201862, “PubChem BioAssay data set” (2004).

Structures are written as SMILES.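 How tested: cells in 96-well plates exposed to compound for 48 hours at five concentrations. GI50 is the concentration that inhibits growth by half.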 Calls of active or inactive are those of the source. Rule as the data show it: active = GI50 up to about 1.1 µM and inactive = higher.

What all share (assay): NCI anticancer screen, dose series, 48 h
The subject of assay [1] is SK-MEL-28.
Assay [2] relates to SK-OV-3.
In assay [3] the test system is COLO 205.
For assay [4], the system named is UO-31.
The test system of assay [5] is SK-MEL-5.
For assay [6], the system named is HCC 2998.
The subject of assay [7] is HCT-15.
Assay [8] deals with KM12.
Assay [9] deals with DLD-1.
Assay [10] deals with SW-620.
Assay [11] relates to SK-MEL-2.
Assay [12] deals with A549.
The subject of assay [13] is MOLT-4.
In assay [14] the test system is NCI-H460.
Assay [15] concerns NCI-H23.
Assay [16] concerns MDA-N.
Assay [17] deals with PC-3.
The test system of assay [18] is M14.
Assay [19] deals with DU-145.
Assay [20] relates to SR.

As for `O=S(=O)(O)c1cc(S(=O)(=O)O)c2cc(/N=N/c3ccc(/N=N/c4ccc(/C=C/c5ccc(/N=[N+](/[O-])c6ccc(/C=C/c7ccc(/N=N/c8ccc(/N=N/c9ccc%10cc(S(=O)(=O)O)cc(S(=O)(=O)O)c%10c9)cc8)cc7S(=O)(=O)O)c(S(=O)(=O)O)c6)cc5S(=O)(=O)O)c(S(=O)(=O)O)c4)cc3)ccc2c1`, the GI50 was > 100 µM (inactive) in assay [1]; > 22.3 µM (inactive) in assay [2]; 50.7 µM (inactive) in assay [3]; 70.8 µM (inactive) in assay [4]; > 66.7 µM (inactive) in assay [5]; > 61.2 µM (inactive) in assay [6]. Besides, the GI50 was 52.6 µM in [7]; 26.7 µM (inactive) in [8]; > 81.3 µM (inactive) in assay [9]; > 10 µM (inactive) in assay [10]; 83.9 µM (inactive) in assay [11]; > 65.3 µM (inactive) in assay [12]. Besides, the values for the GI50 in assay [13], in assay [14] and in assay [15] were > 79.3 µM (inactive), > 40.3 µM (inactive) and > 77.8 µM (inactive), respectively.
Consider `COc1ccc(/N=N/c2c(-c3ccccc3)nn(C(=O)CC(=O)Nc3ccc(OC)cc3)c2-c2ccccc2)cc1`, for which the GI50 in [1] was > 100 µM (inactive); in assay [2] it was 40.6 µM (inactive); in [3], > 100 µM (inactive); in [4], > 100 µM (inactive); in assay [5], > 100 µM (inactive); in [6] it was > 100 µM (inactive). Besides, the GI50 in assay [7] was greater than 100 µM; in assay [8], > 100 µM (inactive); in assay [9], > 100 µM (inactive); in assay [10] it was > 100 µM (inactive); in assay [11], 88.3 µM (inactive); in [12] it was > 100 µM (inactive). The GI50 is 31.8 µM (inactive) in [13], > 100 µM (inactive) in assay [14] and 33 µM (inactive) in assay [15].
Turning to `Cc1ccc(NC(=O)c2cc(S(=O)(=O)Nc3nc4cccnc4[nH]3)c(SSc3cc(Cl)c(C(=O)Nc4ccc(C)cc4)cc3S(=O)(=O)Nc3nc4cccnc4[nH]3)cc2Cl)cc1`, the GI50 in assay [1], in assay [2], in assay [3], in [16], in assay [4] and in [5] was > 100 µM (inactive) throughout. Further, the GI50 in assay [6] was > 100 µM (inactive); in [7], greater than 100 µM; in assay [8] it was > 100 µM (inactive); in assay [10], > 100 µM (inactive); in assay [11] it was > 100 µM (inactive); in [17], > 100 µM (inactive). For the same compound, the GI50 in [18], in [12], in [19], in assay [13], in [14] and in assay [20] was > 100 µM (inactive) each time. For the same compound, the GI50 in assay [15] is > 100 µM (inactive).
As to `COC(=O)c1cc2c3c(c1)Oc1cc(C(=O)OC)cc4c1C3c1c(cc(C(=O)OC)cc1O4)O2`, the GI50 in assay [1] is 34 µM (inactive); in assay [2] it was 16.6 µM (inactive); in [3], 23.7 µM (inactive); in assay [16] it was 8.22 µM (inactive); in assay [4] it was 21 µM (inactive); in assay [5], 2.92 µM (inactive). In addition, the GI50 was 31.8 µM (inactive) in assay [6]; greater than 32 µM in assay [7]; 10.1 µM (inactive) in [8]; 35 µM (inactive) in assay [10]; 36.6 µM (inactive) in [11]; 10.4 µM (inactive) in [17]. In addition, the GI50 in assay [18] is 26.6 µM (inactive); in [12] it was 12.6 µM (inactive); in [19], 5.14 µM (inactive); in assay [13] it was 7.41 µM (inactive); in assay [14], 23.8 µM (inactive); in assay [20], 13.8 µM (inactive). Moreover, the GI50 in assay [15] was 25.1 µM (inactive).
Regarding `CC(C)(C)OC(=O)[C@@H]1CCC(=O)N1C1(c2ccccc2)c2ccccc2-c2ccccc21`, the GI50 in assay [1] is 28.6 µM (inactive); in assay [2], > 100 µM (inactive); in [3], 21.4 µM (inactive); in [16], 29.4 µM (inactive); in assay [4] it was 67.3 µM (inactive); in [5], 23.9 µM (inactive). For the same compound, the GI50 in assay [6] is 52.8 µM (inactive); in assay [7], 55.5 µM; in assay [8], 43.3 µM (inactive); in assay [10], 30.5 µM (inactive); in assay [11] it was 26.2 µM (inactive); in assay [17] it was 29.4 µM (inactive). Moreover, the GI50 in [18] is 50.4 µM (inactive); in assay [12] it was 35.2 µM (inactive); in assay [19] it was 97.1 µM (inactive); in [13], 25.9 µM (inactive); in [14] it was 30.5 µM (inactive); in [20], 38.5 µM (inactive). For the same compound, the GI50 in [15] is 62.4 µM (inactive).
Regarding `NC(=O)c1cc2ccc(O)cc2o/c1=N/c1ccccc1`, the GI50 in [1] was 35.6 µM (inactive); in assay [2], 34.5 µM (inactive); in [3], 18.5 µM (inactive); in assay [16], 22.5 µM (inactive); in [4] it was 3.6 µM (inactive); in [5], 18.4 µM (inactive). In addition, the GI50 in assay [6] was 22.2 µM (inactive); in assay [7], 26.4 µM; in assay [8], 27.2 µM (inactive); in assay [10], 26.2 µM (inactive); in [11], 17.2 µM (inactive); in assay [17] it was 37.7 µM (inactive). In addition, the GI50 in assay [18] was 29.5 µM (inactive); in assay [12], 25.6 µM (inactive); in assay [19], 43.2 µM (inactive); in [13], 29 µM (inactive); in assay [14] it was 25.9 µM (inactive); in [20], 16.1 µM (inactive). In addition, the GI50 in assay [15] was 18.1 µM (inactive).
For `COc1cc(C(=O)Oc2ccc3c(c2)OCO3)cc(OC)c1OC`, the GI50 in assay [1], in assay [2], in [3], in [16], in assay [4] and in [5] was > 100 µM (inactive) each time. Also, the GI50 was > 100 µM (inactive) in [6]; greater than 100 µM in [7]; > 100 µM (inactive) in assay [8]; > 100 µM (inactive) in assay [10]; > 100 µM (inactive) in [11]; > 100 µM (inactive) in [17]. Also, the GI50 in assay [18], in [12], in assay [19], in assay [13], in assay [14] and in assay [20] was > 100 µM (inactive) in each case. The GI50 in [15] is > 100 µM (inactive).
As for `N#Cc1nc(COCCOCc2ccccc2)oc1N`, the GI50 in assay [1], in assay [2], in assay [3], in assay [16], in assay [4] and in assay [5] was > 100 µM (inactive) throughout. Besides, the GI50 is > 100 µM (inactive) in assay [6]; greater than 100 µM in [7]; > 100 µM (inactive) in assay [8]; > 100 µM (inactive) in assay [10]; > 100 µM (inactive) in assay [11]; > 100 µM (inactive) in assay [17]. In addition, the GI50 in [18], in assay [12], in [19], in assay [13], in [14] and in assay [20] was > 100 µM (inactive) each time. Also, the GI50 in assay [15] is > 100 µM (inactive).
Regarding `COc1ccc2oc(C(=O)O)c3c2c1CCC3`, the GI50 is > 100 µM (inactive) in assay [1]; > 100 µM (inactive) in assay [2]; > 100 µM (inactive) in assay [3]; > 100 µM (inactive) in assay [5]; > 100 µM (inactive) in assay [6]; greater than 100 µM in assay [7]. In addition, the GI50 in [9], in assay [10], in assay [18], in [12], in assay [13] and in assay [14] was > 100 µM (inactive) each time. The GI50 in [15] is > 100 µM (inactive).
`O=c1/c(=C/c2cccc([N+](=O)[O-])c2)sc2nc3ccccc3n12`: the GI50 is 35.6 µM (inactive) in assay [1]; 67.8 µM (inactive) in [2]; > 100 µM (inactive) in assay [4]; > 10 µM (inactive) in assay [5]; 50.8 µM (inactive) in [6]; greater than 100 µM in [7]. The GI50 in [8] was > 100 µM (inactive); in assay [9] it was > 100 µM (inactive); in assay [10], > 100 µM (inactive); in [11], > 100 µM (inactive); in assay [18] it was 55.1 µM (inactive); in assay [12] it was > 10 µM (inactive). Further, the GI50 in assay [14] and in assay [15] was > 100 µM (inactive) throughout.
Consider `c1ccc2c(c1)nc1n2CNC1`, for which the GI50 in [1], in assay [2], in assay [3], in assay [16], in assay [4] and in assay [5] was > 100 µM (inactive) in each case. Also, the GI50 in assay [6] is > 100 µM (inactive); in assay [7] it was greater than 100 µM; in [8], > 100 µM (inactive); in [10] it was > 100 µM (inactive); in assay [11], > 100 µM (inactive); in assay [17], > 100 µM (inactive). The GI50 in assay [18] was > 100 µM (inactive); in assay [12] it was > 100 µM (inactive); in assay [19] it was > 100 µM (inactive); in assay [13], > 100 µM (inactive); in assay [14], 54.6 µM (inactive); in assay [20], > 100 µM (inactive). The GI50 in [15] was > 100 µM (inactive).
